Patent US8044042B2, “Thienotriazolodiazepine compound and medicinal use thereof” (Mitsubishi Tanabe Pharma Corporation, priority 2005, dated 2011)
Like-named read-outs stand apart in the source and are kept apart here.

Columns and labels:
[1] = system: CD28-dependent T cell growth; experiment: Mouse T cell proliferation stimulated with anti-CD28 antibody and PMA (tritiumthymidine uptake); format: cell-based; details: for IC50: T-cell, BALB/c mouse T cells, 10 ng/mL PMA and 250 ng/mL anti-CD28 antibody, tritiumthymidine uptake, read-out: CD28-dependent T cell growth suppressive action (IC50); for CD28-dependent T cell growth suppressive action (in words): mouse T cells stimulated with PMA and anti-CD28 antibody
Description: The spleen was aseptically isolated from 6-7-week-old male BALB/c mice (CHARLES RIVER LABORATORIES JAPAN, INC.), and splenocyte suspension was prepared using RPMI1640 medium (manufactured by Sigma-Aldrich Ltd.). After hemolysis by a hypotonic treatment using a mixed solution of 0.83% aqueous ammonium chloride and Tris-HCl buffer (pH 7.65) at 9:1, a T cell concentrated fraction was obtained using a T cell concentrated column (manufactured by R&D systems). A cell suspension prepared using RPMI1640 medium containing 10% fetal calf serum (FCS, manufactured by Sigma-Aldrich Ltd.) was added to a flat-bottomed 96 well microtest plate (manufactured by Becton, Dickinson and Company) at 5×10^5 cells/well. Furthermore, a test compound diluted with a medium to the final concentration of 1-10000 nmol/L, 10 ng/mL PMA (manufactured by Sigma-Aldrich Ltd.) and 250 ng/mL anti-CD28 antibody (manufactured by BD pharmingen) were added, and the mixture was cultured under the conditions of 37° C., 5% carbon dioxide, 95% air for 20 hr. After the completion of culture, tritiumthymidine (specific activity: […], manufactured by MP Biochemicals) was added at 18.5 kBq/well, and the mixture was further cultured for 4 hr. Then, the cells were recovered in a glass fiber filter using a cell harvester (manufactured by Molecular Devices Corp.), the radioactivity taken into the cells was measured using a plate scintillation counter (microbeta 1460, manufactured by PerkinElmer), based on which the mouse T cell growth induced by stimulation with PMA and anti-CD28 antibody was measured. To be specific, suppressing rate (%)=(1−(radioactivity (cpm) of well added with test compound)/(radioactivity (cpm) of well without addition of test compound))×100 was calculated from the average amount of tritiumthymidine uptake (cpm) of T cells in each well added with various concentrations of test compound. In addition, based on the dose response curve obtained by plotting the average tritiumthymidine uptake amount (cpm) or suppressing rate on the vertical axis and the concentration on the transverse axis, the concentration of the compound (IC50) suppressing the value to 50% of that of the control group was determined by nonlinear regression.

[2] = system: TYPE II Collagen-Induced Arthritis in DBA/1J Mouse; experiment: Type II collagen-induced arthritis in DBA/1J mouse; format: in vivo; details: 840 h
Description: Bovine Type II collagen (purchased from collagen technical workshop) (100-200 μg) was mixed with complete Freund's adjuvant (manufactured by Sigma-Aldrich Ltd.) containing killed tuberculosis H37Ra. Using the resulting emulsion, 6 to 7-week-old male DBA/1J mice (CHARLES RIVER LABORATORIES JAPAN, INC.) were subcutaneously immunized at the tail root twice at 3 week intervals, whereby arthritis was developed. A test compound was suspended or dissolved in 0.5% carboxymethylcellulose (manufactured by Sigma-Aldrich Ltd.), and repetitively administered orally at a dose of 0.1-30 mg/kg body weight using an oral gavage needle for 2 weeks from the day of booster. As to this model, the symptoms of arthritis of four limbs were evaluated based on the following judgment criteria using the scores of from 0 to 4. The arthritis score of each mouse was shown by the total of the scores of four limbs (maximum: 16 points).
As regards the arthritis score, each group (n=5-6) was evaluated using an average value and mean error, with a group administered only with a vehicle being control, and Mann-Whitney U test was used for statistical analysis, wherein p value of 0.05 or below was determined to be significant. In the following, the suppressive action of the compound of the present invention on mouse collagen induced arthritis is shown by the suppressing rate (%) (1−(average arthritis score of compound administration group)/(average arthritis score of control group)×100) calculated from the average arthritis score at 35 days after the primary immunization.

[3] = system: Lupus Nephritis in MRL/MpJ-lpr/lpr Mouse; experiment: Lupus nephritis in spontaneous systemic lupus erythematosus model MRL/MpJ-lpr/lpr mouse; format: in vivo; details: for urine protein score (mean ± SE): 4 weeks after administration, medium group 2.8 ± 0.2, P <0.05
Description: The compound of the present invention or a pharmaceutically acceptable salt thereof was suspended or dissolved in 0.5% carboxymethylcellulose, and repetitively administered orally to male MRL/MpJ-lpr/lpr mice at 16 weeks after birth (CHARLES RIVER LABORATORIES JAPAN, INC.), that had developed lupus nephritis, at a dose of 1 and 3 mg/kg body weight for 4 weeks using an oral gavage needle. During the dosing period, urine-protein level was scored once a week using Ames urine test paper (Albustix (registered trademark), Bayer, Ltd.•Sankyo Corp.). As regards the urine protein levels, each group (n=10) was evaluated using an average value and mean error, with a group administered only with a vehicle being control, and Dunnett's test was used for statistical analysis, wherein p value of 0.05 or below was determined to be significant.

[4] = system: Biphasic Auricular Edema in Egg Albumin-Induced Mouse; experiment: Egg albumin-induced mouse biphasic auricular edema; format: in vivo; details: for suppressing rate (%) of auricular edema: 10 mg/kg oral for 3 days, 24 hr later, P <0.05; for suppressive action on edema (in words): 10 mg/kg, 24 hr after induction with egg albumin
Description: Using saline (0.5 ml) containing egg albumin (10 μg, manufactured by Sigma-Aldrich Ltd.) and 1 mg of aluminum hydroxide gel, 6 to 7-week-old male BALB/c mice (CHARLES RIVER LABORATORIES JAPAN, INC.) were intraperitoneally immunized. Two weeks later, egg albumin (1.25 μg) was intradermally injected into the auricle of the mice for challenge, whereby biphasic auricular edema was induced 1 hr and 24 hr after the challenge. The compound of the present invention or a pharmaceutically acceptable salt thereof was suspended or dissolved in 0.5% carboxymethylcellulose, and repetitively administered orally at a dose of 0.01-30 mg/kg body weight for 3 days, from 2 days before the antigen challenge to the day of challenge, using an oral gavage needle. As for this model, the thickness of the auricle of the mouse was measured using a dial gauge (manufactured by Ozaki MFG. Co. Ltd.) and used as an index of auricular edema. As regards the thickness of the auricle, each group (n=8) was evaluated using an average value and mean error, with a group administered only with a vehicle being control, and t-test was used for statistical analysis, wherein p value of 0.05 or below was determined to be significant.

[5] = system: Mouse Graft-Versus-Host Reaction (GvHR); experiment: Mouse graft-versus-host reaction (GvHR); format: in vivo; details: 30 mg/kg oral for 28 days from splenocyte injection; P <0.05 vs vehicle
Description: Cyclophosphamide (manufactured by Shionogi & Co., Ltd.) is administered to male BDF1 recipient mouse (8-week-old, CHARLES RIVER LABORATORIES JAPAN, INC.) at a dose of 300 mg/kg from the tail vein as a pretreatment at 24 hr prior to injection of spleen cells. The spleen was aseptically isolated from male C57BL/6 donor mouse (8-week-old, CHARLES RIVER LABORATORIES JAPAN, INC.), minced in RPMI1640 medium (manufactured by Sigma-Aldrich Ltd.), and passed through a stainless mesh to give a splenocyte single cell suspension. After removal of red blood cells by a hypotonic treatment using a mixed solution of 0.83% aqueous ammonium chloride and Tris-HCl buffer (pH 7.65) at 9:1, splenocytes were washed and suspended in physiological saline to give a splenocyte suspension. The prepared cells were injected at 1×10^8 cells/mouse into the tail vein to induce acute GvHR. The compound of the present invention or a pharmaceutically acceptable salt thereof was suspended or dissolved in 0.5% carboxymethylcellulose, and repetitively administered orally at a dose of 3-30 mg/kg body weight for 28 days from the day of splenocyte injection, and the influence on the survival time was evaluated. After induction of acute GvHR, the survival of each individual was determined every day, and the day of confirmed death was taken as the survival time of each individual. As for the survival time, log-rank test analysis was performed using the group administered with vehicle alone as a control, and the multiplicity was adjusted by the Holm's method, wherein p value of 0.05 or below was determined to be significant.

[6] = system: Mouse Skin Allograft Survival; experiment: Mouse skin allograft survival; format: in vivo; details: for median survival time of skin graft: vehicle 9.5
Description: A tail skin graft (4×7 mm) of 5- to 7-week-old male AKR mouse (KYUDO Co. Ltd. was) was transplanted on the back of 5- to 7-week-old male C3H mouse (CHARLES RIVER LABORATORIES JAPAN, INC.), covered with aseptic gauze and bandaged. The bandage was removed at day 6 from the transplantation, and the graft was observed every day up to rejection. The rejection of the skin graft was determined to be the time point when 90% or more of the epithelium of the graft turned brown due to necrosis. The number of days from the transplantation to the rejection was taken as the survival time of the graft. The compound of the present invention or a pharmaceutically acceptable salt thereof was suspended or dissolved in 0.5% carboxymethylcellulose, and repetitively administered orally at a dose of 0.3-100 mg/kg body weight once a day for 14 days from the day of transplantation. As for the graft survival time, generalized Wilcoxon test analysis was performed using the group administered with vehicle alone as a control, and the multiplicity was adjusted by the Holm's method, wherein p value of 0.05 or below was determined to be significant.

[7] = system: Experimental Autoimmune Encephalomyelitis in SJL/J Mouse; experiment: Experimental autoimmune encephalomyelitis in SJL/J mouse; format: in vivo; details: 30 mg/kg oral, 3 weeks from immunization; average EAE score at 14 days after immunization; P <0.05
Description: The 139th-151st peptides (50 μg) of rat-derived proteolipid protein (manufactured by Bachem) was mixed with complete Freund's adjuvant containing killed tuberculosis H37Ra. Using the resulting emulsion, 10-week-old female SJL/J mice (CHARLES RIVER LABORATORIES JAPAN, INC.) were subcutaneously immunized on the back, whereby experimental autoimmune encephalomyelitis (EAE) was developed. The compound of the present invention or a pharmaceutically acceptable salt thereof was suspended or dissolved in 0.5% carboxymethylcellulose (manufactured by Sigma-Aldrich Ltd.), and repetitively administered orally at a dose of 3-30 mg/kg body weight using an oral gavage needle for 3 weeks from the day of immunization. As to this model, the symptoms of EAE were evaluated based on the following judgment criteria using the scores of from 0 to 5.
As regards the EAE score, each group (n=10) was evaluated using an average value and mean error, with a group administered only with a vehicle being control, and Mann-Whitney U test was used for statistical analysis, wherein p value of 0.05 or below was determined to be significant. In the following, the suppressive action of the compound of the present invention on EAE is shown by the suppressing rate (%) calculated from the average EAE score at 14 days after the immunization. […] From the results, the compound is considered effective for encephalomyelitis, multiple sclerosis and the like.

[8] = po, read-out: suppressing rate (%) of arthritis score

| SMILES | IC50 [1] | CD28-dependent T cell growth suppressive action (in words) [1] | inhibition in vivo at 3 mg/kg [2, 8] | urine protein score (mean ± SE) ([3]; 1 mg/kg oral) | urine protein score (mean ± SE) ([3]; 3 mg/kg oral) | effect on urine protein score (in words) ([3]; at not less than 1 mg/kg, oral for 4 weeks, compared to the control group) | inhibition in vivo at 3 mg/kg ([2]; 3 mg/kg oral, 2 weeks from booster, average arthritis score at 35 days after primary immunization, P <0.05, read-out: suppressing rate (%) of arthritis score) | suppressing rate (%) of auricular edema [4] | suppressive action on edema (in words) [4] | median survival time [5] | median survival time of skin graft ([6]; 30 mg/kg oral once a day for 14 days, P 0.13) | effect on graft survival time (in words) ([6]; 100 mg/kg) | median survival time of skin graft ([6]; 100 mg/kg oral once a day for 14 days, P <0.05) | inhibition in vivo at 10 mg/kg [2, 8] | suppressing rate (%) of EAE score [7] |
| --- | --- | --- | --- | --- | --- | --- | --- | --- | --- | --- | --- | --- | --- | --- | --- |
| COC(=O)C[C@@H]1N=C(c2ccc(Cl)cc2)c2c(sc(C)c2C)-n2c(C)nnc21 [Example 1, Methyl (S)-{4-(4-chlorophenyl)-2,3,9-trimethyl-6H-thieno[3,2-f][1,2,4]triazolo[4,3-a][1,4]diazepin-6-yl}acetate] | 38 nM | have a CD28-dependent T cell growth suppressive action | 66.1% | 1.8 ± 0.3 | 1.6 ± 0.2 | significantly decreased the urine protein score | – | – | – | – | – | – | – | – | – |
| COC(=O)C[C@@H]1N=C(c2ccc(-c3ccc(OC)cc3)cc2)c2c(sc(CO)c2C)-n2c(C)nnc21 [Example 234, Methyl (S)-{2-hydroxymethyl-4-(4′-methoxybiphenyl-4-yl)-3,9-dimethyl-6H-thieno[3,2-f][1,2,4]triazolo[4,3-a][1,4]diazepin-6-yl}acetate] | 97 nM | have a CD28-dependent T cell growth suppressive action | – | – | – | – | 53.6% | 35.8% | significant suppressive action on edema | 32 days | 11 days | significantly prolonged the graft survival time | 14 days | – | – |
| Cc1sc2c(c1C)C(c1ccc(NCc3ccccc3)cc1)=NCc1nnc(C)n1-2 [Example 335, 4-(4-benzylaminophenyl)-2,3,9-trimethyl-6H-thieno[3,2-f][1,2,4]triazolo[4,3-a][1,4]diazepine] | 190 nM | have a CD28-dependent T cell growth suppressive action | – | – | – | – | – | 45.1% | significant suppressive action on edema | 36.5 days | – | – | – | 65.5% | 53% |
